{"source": "paper PMC10115881", "about": "“Disrupting the α-synuclein-ESCRT interaction with a peptide inhibitor mitigates neurodegeneration in preclinical models of Parkinson’s disease” (Nature Communications, 2023)", "key": {"A53T a-syn": {"test_system": "A53T a-syn", "test": "A53T a-syn protein level in HEK293 cells by immunoblot", "format": "cell-based, human", "protocol": "(§1) Infected or transfected cells were scraped from six-well dishes and lysed with lysis buffer (50 mM Tris-HCl pH 7.4, 1% Nonidet P-40, 150 mM NaCl, 1 mM EDTA, 1× protease inhibitor mixture (Sigma)) for 30 min at 4 °C. The insoluble pellet was removed following a 10,000 rpm spin for 5 min at 4 °C. Lysates were analyzed by SDS-PAGE/immunoblot using 4–20% Mini-PROTEAN Tris-glycine gels (Bio-Rad), transferred to polyvinylidene fluoride (PVDF) membranes, and blocked in 5% milk containing PBS-Tween-20 (0.1%) for 1 h. PVDF membranes were then incubated with specified primary antibodies followed by incubation with horseradish peroxidase-conjugated secondary antibodies (anti-mouse HRP-linked, Cell Signaling, catalog #7076, 1:5000; anti-rabbit HRP-linked, Cell Signaling, catalog #7074, 1:5000) and detected using enhanced chemiluminescence (GE Healthcare). Anti-a-syn antibody (clone 42) was obtained from BD Biosciences (catalog #610787, 1:1000). Anti-LAMP1 antibody was obtained from Abcam (catalog #ab24170, 1:500). Anti-beta-actin antibody was obtained from Cell Signaling (13E5) (catalog #4970, 1:1000). Anti-CD63 antibody was obtained from R&D Systems (catalog #MAB50482-SP, 1:1000)."}, "Flag-CHMP2B": {"test_system": "Flag-CHMP2B", "test": "Co-immunoprecipitation of Flag-CHMP2B with GFP-peptides", "format": "cell-based", "details": "n = 3", "protocol": "HEK293T cells were co-transfected with Flag-tagged target protein, HA-tagged source protein, and GFP-tagged peptide or GFP. Cells were lysed 48 h after transfections with radioimmune precipitation assay buffer (50 mM Tris-HCl pH 7.4, 1% Nonidet P-40, 150 mM NaCl, 1 mM EDTA, 10 mM Na3VO4, 10 mM sodium pyrophosphate, 25 mM NaF, 1× protease inhibitor mixture (Sigma)) for 30 min at 4 °C and co-immunoprecipitated with Flag beads (Clontech). The resulting immunocomplexes were analyzed by immunoblot using the appropriate antibodies. Protein samples were separated using 4–20% Mini-PROTEAN Tris-glycine gels (Bio-Rad) transferred to PVDF membranes and blocked in 5% milk containing PBS-Tween-20 (0.1%) for 1 h. PVDF membranes were then incubated with specified primary antibodies followed by incubation with horseradish peroxidase-conjugated secondary antibodies (anti-mouse HRP-linked, Cell Signaling, catalog #7076, 1:5000; anti-rabbit HRP-linked, Cell Signaling, catalog #7074, 1:5000) and detected using enhanced chemiluminescence (GE Healthcare). HA antibodies were obtained from Santa Cruz (catalog #7392, 1:2000), GFP antibodies were purchased from Abcam (catalog #ab290, 1:2000), and Flag antibodies were purchased from Sigma (catalog #A8592, 1:1000)."}, "WT a-syn oligomers": {"test_system": "WT a-syn oligomers", "test": "Luciferase PCA of WT a-syn oligomers", "format": "cell-based, human", "details": "for Oligomers %: WT oligomers, luciferase activity; for Effect on WT a-syn oligomers: luciferase PCA", "protocol": "(§2) Oligonucleotides encoding the specific peptides were synthesized and individually cloned into the pLJM1 nGFP lentiviral vector. HEK293T cells were infected with individual constructs, and cell viability was assessed using Cell Titer-Glo luminescent assay (Promega) at 72 h post infection.\n(§3) Tet-off HEK293 cells stably expressing split luciferase-a-syn constructs and tet-off parent HEK293 cell lines were maintained in DMEM supplemented with 10% FBS and 1% pen/strep/glutamine. […] Cells were trypsinized from subconfluent culture and seeded in a 96-well plate at a density of 15,000 cells per well. Cells were incubated overnight at 37 °C in 5% CO2. Cells were transfected with GFP-peptide plasmids. After 6 h of incubation, 20 µL of cell medium was transferred to a black flat-bottomed 96-well plate. Fifty microliters of Working solution (Pierce Gaussia-Firefly Luciferase Dual Assay Kit, Thermo Scientific, 16181) were added into each well containing cell medium. Immediately after adding the reagent, samples were read using a luminometer with a 480 nm filter."}, "[1]": {"test_system": "WT a-syn expressing HEK293 cells", "test": "Cell Titer-Glo cell viability, WT a-syn expressing cells", "format": "cell-based, human", "details": "WT alpha-synuclein; for Cell viability: MG132 10 μM, 72 h; for cell viability effect of peptides: Supp Figure 1A", "protocol": "as §2\n(§4) Cells were trypsinized from subconfluent cultures as described earlier, suspended in culture media, and then seeded into triplicate wells of a 96-well plate (100 µl/well) at a density of 1.5 × 10^4 cells per well with standard culture conditions of 5% CO2 at 37 °C. Cells were infected with lentivirus expressing peptide at a MOI of 5 for 72 h or transfected with plasmid for 72 h. Cell Titer-Glo reagent was added to each well (30 µL), according to the manufacturer’s protocol and […]."}, "CD63": {"test_system": "CD63", "test": "CD63 levels in HEK293 cells", "format": "cell-based, human", "details": "A53T a-syn", "protocol": "as §1"}, "[2]": {"test_system": "A53T a-syn expressing HEK293 cells", "test": "Cell Titer-Glo cell viability, A53T a-syn expressing cells", "format": "cell-based, human", "details": "for cell viability effect of peptides: A53T a-syn, Supp Figure 1A; for Cell viability: A53T, MG132 10 μM, 72 h; for Effect of MIM motif peptides on cell viability in A53T a-syn expressing cells: Supp Figure 1H", "procedure,_shortened": "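HEK293 cells (1.5 × 10^4 per well, triplicate) were infected with peptide-expressing lentivirus at MOI 5 or transfected with plasmid for 72 h at 37 °C, 5% CO2. Viability was then measured with Cell Titer-Glo, […].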"}, "A53T a-syn oligomers": {"test_system": "A53T a-syn oligomers", "test": "Luciferase PCA of A53T a-syn oligomers", "format": "cell-based, human", "details": "for Effect on A53T a-syn oligomers: luciferase PCA, n=3", "protocol": "as §2, §3"}, "Parent HEK293 cells": {"test_system": "Parent HEK293 cells", "test": "Cell Titer-Glo cell viability, parent cells", "format": "cell-based, human", "details": "for Cell viability: MG132 10 μM, 72 h; for cell viability effect of peptides: Supp Figure 1A", "protocol": "as §2, §4"}}}
{"substance": "DEEIERQLKALG [PDpep1.3]", "values": [{"measurement": "Effect on A53T a-syn protein level", "setting": "A53T a-syn", "result": "reduction in a-syn"}, {"measurement": "Interaction with CHMP2B", "setting": "Flag-CHMP2B", "result": "interacted with Flag-CHMP2B"}, {"measurement": "Oligomers %", "setting": "WT a-syn oligomers; column 1", "result": 99.8279, "unit": "%"}, {"measurement": "Oligomers %", "setting": "WT a-syn oligomers; column 2", "result": 83.0465, "unit": "%"}, {"measurement": "Oligomers %", "setting": "WT a-syn oligomers; column 3", "result": 73.1497, "unit": "%"}, {"measurement": "Oligomers %", "setting": "WT a-syn oligomers; column 4", "result": 78.3132, "unit": "%"}, {"measurement": "Oligomers %", "setting": "WT a-syn oligomers; column 5", "result": 63.6833, "unit": "%"}, {"measurement": "Effect on WT a-syn oligomers", "setting": "WT a-syn oligomers", "result": "significant reduction in a-syn oligomers"}, {"measurement": "Cell viability", "setting": "[1]; replicate 1", "result": 5800}, {"measurement": "Cell viability", "setting": "[1]; replicate 2", "result": 5300}, {"measurement": "Cell viability", "setting": "[1]; replicate 3", "result": 6000}, {"measurement": "cell viability effect of peptides", "setting": "[1]; replicate 1", "result": 14300}, {"measurement": "cell viability effect of peptides", "setting": "[1]; replicate 2", "result": 13800}, {"measurement": "cell viability effect of peptides", "setting": "[1]; replicate 3", "result": 14100}, {"measurement": "Effect on CD63 levels", "setting": "CD63", "result": "return of CD63"}, {"measurement": "Effect on cell survival/viability", "setting": "[2]; A53T a-syn cells", "result": "most prominent effects on cell survival"}, {"measurement": "cell viability effect of peptides", "setting": "[2]; replicate 1", "result": 15000}, {"measurement": "cell viability effect of peptides", "setting": "[2]; replicate 2", "result": 15800}, {"measurement": "cell viability effect of peptides", "setting": "[2]; replicate 3", "result": 15200}, {"measurement": "Cell viability", "setting": "[2]; replicate 1", "result": 8500}, {"measurement": "Cell viability", "setting": "[2]; replicate 2", "result": 9100}, {"measurement": "Cell viability", "setting": "[2]; replicate 3", "result": 9000}, {"measurement": "Effect of MIM motif peptides on cell viability in A53T a-syn expressing cells", "setting": "[2]; replicate 1", "result": 8764}, {"measurement": "Effect of MIM motif peptides on cell viability in A53T a-syn expressing cells", "setting": "[2]; replicate 2", "result": 8800}, {"measurement": "Effect of MIM motif peptides on cell viability in A53T a-syn expressing cells", "setting": "[2]; replicate 3", "result": 8162}, {"measurement": "Effect on A53T a-syn oligomers", "setting": "A53T a-syn oligomers", "result": "significant reduction in A53T a-syn oligomers"}, {"measurement": "A53T a-syn oligomers as measured by luciferase activity", "setting": "A53T a-syn oligomers; replicate 1", "result": 222198}, {"measurement": "A53T a-syn oligomers as measured by luciferase activity", "setting": "A53T a-syn oligomers; replicate 2", "result": 195592}, {"measurement": "A53T a-syn oligomers as measured by luciferase activity", "setting": "A53T a-syn oligomers; replicate 3", "result": 221562}, {"measurement": "Cell viability", "setting": "Parent HEK293 cells; replicate 1", "result": 4900}, {"measurement": "Cell viability", "setting": "Parent HEK293 cells; replicate 2", "result": 4200}, {"measurement": "Cell viability", "setting": "Parent HEK293 cells; replicate 3", "result": 4500}, {"measurement": "cell viability effect of peptides", "setting": "Parent HEK293 cells; replicate 1", "result": 13700}, {"measurement": "cell viability effect of peptides", "setting": "Parent HEK293 cells; replicate 2", "result": 13400}, {"measurement": "cell viability effect of peptides", "setting": "Parent HEK293 cells; replicate 3", "result": 13100}]}
{"substance": "IPIQLKA [PDpep1, initial screen hit peptide IPIQLKA]", "values": [{"measurement": "Effect on A53T a-syn protein level", "setting": "A53T a-syn", "result": "reduction in a-syn"}, {"measurement": "Interaction with CHMP2B", "setting": "Flag-CHMP2B", "result": "interacted with Flag-CHMP2B"}, {"measurement": "Oligomers %", "setting": "WT a-syn oligomers; column 1", "result": 91.6523, "unit": "%"}, {"measurement": "Oligomers %", "setting": "WT a-syn oligomers; column 2", "result": 79.1738, "unit": "%"}, {"measurement": "Oligomers %", "setting": "WT a-syn oligomers; column 3", "result": 70.9983, "unit": "%"}, {"measurement": "Oligomers %", "setting": "WT a-syn oligomers; column 4", "result": 79.1738, "unit": "%"}, {"measurement": "Oligomers %", "setting": "WT a-syn oligomers; column 5", "result": 65.4045, "unit": "%"}, {"measurement": "Effect on WT a-syn oligomers", "setting": "WT a-syn oligomers", "result": "significant reduction in a-syn oligomers"}, {"measurement": "Cell viability", "setting": "[1]; replicate 1", "result": 3500}, {"measurement": "Cell viability", "setting": "[1]; replicate 2", "result": 3600}, {"measurement": "Cell viability", "setting": "[1]; replicate 3", "result": 3700}, {"measurement": "cell viability effect of peptides", "setting": "[1]; replicate 1", "result": 12400}, {"measurement": "cell viability effect of peptides", "setting": "[1]; replicate 2", "result": 12300}, {"measurement": "cell viability effect of peptides", "setting": "[1]; replicate 3", "result": 12500}, {"measurement": "cell viability effect of peptides", "setting": "[2]; replicate 1", "result": 12800}, {"measurement": "cell viability effect of peptides", "setting": "[2]; replicate 2", "result": 14040}, {"measurement": "cell viability effect of peptides", "setting": "[2]; replicate 3", "result": 13200}, {"measurement": "Cell viability", "setting": "[2]; replicate 1", "result": 5500}, {"measurement": "Cell viability", "setting": "[2]; replicate 2", "result": 5200}, {"measurement": "Cell viability", "setting": "[2]; replicate 3", "result": 5000}, {"measurement": "Effect of MIM motif peptides on cell viability in A53T a-syn expressing cells", "setting": "[2]; replicate 1", "result": 5748}, {"measurement": "Effect of MIM motif peptides on cell viability in A53T a-syn expressing cells", "setting": "[2]; replicate 2", "result": 5350}, {"measurement": "Effect of MIM motif peptides on cell viability in A53T a-syn expressing cells", "setting": "[2]; replicate 3", "result": 5562}, {"measurement": "Effect on A53T a-syn oligomers", "setting": "A53T a-syn oligomers", "result": "significant reduction in A53T a-syn oligomers"}, {"measurement": "A53T a-syn oligomers as measured by luciferase activity", "setting": "A53T a-syn oligomers; replicate 1", "result": 221224}, {"measurement": "A53T a-syn oligomers as measured by luciferase activity", "setting": "A53T a-syn oligomers; replicate 2", "result": 258154}, {"measurement": "A53T a-syn oligomers as measured by luciferase activity", "setting": "A53T a-syn oligomers; replicate 3", "result": 261396}, {"measurement": "Cell viability", "setting": "Parent HEK293 cells; replicate 1", "result": 3800}, {"measurement": "Cell viability", "setting": "Parent HEK293 cells; replicate 2", "result": 3900}, {"measurement": "Cell viability", "setting": "Parent HEK293 cells; replicate 3", "result": 4100}, {"measurement": "cell viability effect of peptides", "setting": "Parent HEK293 cells; replicate 1", "result": 12300}, {"measurement": "cell viability effect of peptides", "setting": "Parent HEK293 cells; replicate 2", "result": 12100}, {"measurement": "cell viability effect of peptides", "setting": "Parent HEK293 cells; replicate 3", "result": 12500}]}
